For 86 molecules, XC50 results are on record in ChEMBL document CHEMBL1157539, “Thousands of chemical starting points for antimalarial lead identification” (Nature, 2010).

SMILES strings stand for the structures.

The experiment has as its system Plasmodium falciparum. Description: GSK_TCMDC: Inhibition of Plasmodium falciparum 3D7 in whole erythrocytes, using parasite LDH activity as an index of growth. The class given is functional, organism-based. Particulars: Plasmodium falciparum, 3D7.
Take `OC(CNCc1ccccc1OC(F)F)c1cccc(C(F)(F)F)c1` (stereo unspecified): the XC50 is 765 nM.

On to `CN(C)Cc1ccc(-c2cc3ncnc(Nc4ccc(OCc5cccc(F)c5)c(Cl)c4)c3s2)[nH]1`, for which the XC50 amounted to 174 nM.

Take `Cc1cc(OCCCN2CCCCC2)ccc1NC(=O)COc1ccc(Cl)cc1C(=O)c1cc(C#N)cc(C(F)(F)F)c1`: the XC50 stood at 1030 nM.

Molecule `Cc1cccc2nc(-c3ccc(-c4cccc(CN5CCN(CC6CCCN(C)C6)CC5)c4)s3)[nH]c12` (stereo unspecified) gave an XC50 of 121 nM.

`Cc1cc(NC(=O)c2ccco2)ccc1OC1CCN(Cc2ccc(C#N)cc2)CC1` had an XC50 of 497 nM.

On to `CSc1nccc(-c2ccc3ccnc(N)c3c2)n1`, for which the XC50 stood at 925 nM.

`CC(CNC1CCN(CCn2c(=O)ccc3ccc(F)cc32)CC1)c1ccccc1` (stereo unspecified) yielded an XC50 of 1270 nM.

`CC(C)CCNCc1ccc(OCc2cccc(C(=O)Nc3ccccc3)c2)c(I)c1` came in with an XC50 of 288 nM.

As for `CN1CCC(Oc2ccc(CN3CC[C@H](NC(=O)c4cc(F)cc(F)c4)C3)c3ccccc23)C1` (stereo partly specified), the XC50 worked out at 841 nM.

Molecule `Cc1[nH]c2ccccc2c1C1=CCN(CC2CC2C(=O)c2ccccc2)CC1` (stereo unspecified) yielded an XC50 of 349 nM.

Consider `O=C(Nc1ccc(OC2CCN(Cc3ccc(F)cc3)CC2)c(Cl)c1)c1ccsc1`, for which the XC50 came to 717 nM.

`Cc1cc(Nc2ccccc2)nc(NCCOc2ccccc2)n1` registered an XC50 of 728 nM.

`Cc1ccc(C2(O)CC3CCC(C2)N3C)cc1` (stereo unspecified) showed an XC50 of 611 nM.

With `CC1(C)CN(CCC2CCC(NC(=O)/C=C/c3ccc(F)cc3F)CC2)Cc2ccc(C#N)cc21` (stereo unspecified), the XC50 was 787 nM.

As for `Cc1cc(N2CCOCC2)nc2ccc(NC(=O)c3ccc(Cl)c([N+](=O)[O-])c3)cc12`, the XC50 was 1030 nM.

Consider `COc1ccc(OC)c(CC2c3ccc(Br)c(O)c3CCN2C)c1` (stereo unspecified), for which the XC50 turned out to be 754 nM.

In the case of `CCC(CO)NCC(O)Cn1c2ccc(Br)cc2c2cc(Br)ccc21` (stereo unspecified), the XC50 was 783 nM.

For the molecule `CCCCN(CCCC)/C(=N/c1cccc(Cl)c1Cl)Nc1ccc(C#N)cc1O`, the XC50 was 853 nM.

The molecule `COc1ccc(CNC2CCN(C)CC2)cc1-c1ccc(S(=O)(=O)NCCc2ccccn2)c(C)c1` had an XC50 of 1150 nM.

`O=C(NC1CCN(Cc2ccccc2)CC1)c1cc(-c2ccncc2)nc2ccc(Cl)cc12`: the XC50 turned out to be 920 nM.

In turn, `CCC(C)c1ccc(-n2c(Nc3ccccc3)nc3cc(S(N)(=O)=O)ccc32)cc1` (stereo unspecified) came in with an XC50 of 1060 nM.

For `N#Cc1cccc(C(=O)NC2CCN(c3ccnc(Nc4ccc(F)cc4)n3)C2)c1` (stereo unspecified), the XC50 was found to be 396 nM.

`O=c1ccc2ccc(F)c3c2n1CC3CN1CCC(NCc2cccc(-c3cccs3)c2)CC1` (stereo unspecified) displayed an XC50 of 834 nM.

`CCN(CC)CCOc1ccc(N(Cc2ccc(C(C)(C)C)cc2)C(=O)c2ccc(Cc3ccccc3)cc2)cc1OC` came in with an XC50 of 773 nM.

In turn, `CN1CCC(NCc2ccc(-c3ccc(S(=O)(=O)NC4CCC4)s3)cc2)CC1` gave an XC50 of 846 nM.

Molecule `CCCCCCCNCCNc1cc(C)nc2ccccc12` yielded an XC50 of 386 nM.

Regarding `CCCC1N=C(N)N=C(N)N1c1cccc(C(F)(F)F)c1` (stereo unspecified), the XC50 worked out at 594 nM.

In the case of `O=C(Nc1ccc(N2CCC(Nc3ccccn3)CC2)cc1)c1cnc(Cl)c(Cl)c1`, the XC50 was determined as 1190 nM.

For `CC(=O)c1cc(N2CCCC2)ccc1N`, the XC50 amounted to 15.5 nM.

Regarding `Cc1ccc(C(=O)Nc2ccc(-c3nc4ccccc4[nH]3)cc2)cc1S(=O)(=O)N1CCOCC1`, the XC50 was 1210 nM.

As for `CCc1sc(CN(CCCNc2cc(=O)c3ccccc3[nH]2)Cc2sc(CC)c(Br)c2-c2ccsc2)c(-c2ccsc2)c1Br`, the XC50 came to 94.6 nM.

Molecule `CC(C)CCn1c(Sc2ccc(C#N)c([N+](=O)[O-])c2)nnc1-c1ccccc1Cl` yielded an XC50 of 1030 nM.

With `Fc1cccc(COc2ccc(Nc3ncnc4ccc(-c5nnc(C(F)(F)F)o5)cc34)cc2Cl)c1`, the XC50 turned out to be 579 nM.

On to `COc1cc(C=CC(=O)N2CCN(Cc3cccc(C)c3)CC2)ccc1OCc1c(C)noc1C`, for which the XC50 turned out to be 1030 nM.

Molecule `CCOc1ccc2c(=NN=Cc3cccc(OC)c3OC)cc(C)[nH]c2c1` yielded an XC50 of 898 nM.

Molecule `COc1ccc(Cl)cc1N1CCN(CCCNC(=O)c2ccc(-c3nc4cc(Cl)c(F)cc4[nH]3)cc2)CC1` gave an XC50 of 1060 nM.

Molecule `Cc1onc(-c2ccccc2)c1-c1nc(NC2CCCC(C)C2)no1` (stereo unspecified) showed an XC50 of 836 nM.

The molecule `CNc1ccc(CNCc2cccc(-c3ccc(-c4nc5ccccc5[nH]4)cc3)c2)cc1` returned an XC50 of 300 nM.

`Cc1[nH]c(C)c(-c2ccc(-c3ccc(Cl)cc3)nc2)c(=O)c1Br` showed an XC50 of 113 nM.

Regarding `OC1(CNCc2ccccc2)CCN(CCc2c[nH]c3ccc(F)cc23)CC1`, the XC50 amounted to 710 nM.

`CCN1CCN(c2cc(C)c3cc(NC(=O)c4ccc(OC)c([N+](=O)[O-])c4)ccc3n2)CC1` had an XC50 of 553 nM.

With `CN1CCN(c2cc(NC(=O)Nc3cccc(Cl)c3Cl)ccc2Cl)CC1`, the XC50 is 734 nM.

In the case of `O=C(C=Cc1ccc(Cl)c(Cl)c1)NC1CCN(CCc2ccccc2)CC1`, the XC50 stood at 594 nM.

As for `CCN(CC)CCNC(=O)c1ccc(N/C=C2\C(=O)Nc3ccc(S(=O)(=O)Cc4c(Cl)cccc4Cl)cc32)cc1`, the XC50 came to 840 nM.

As for `COCC(=O)N(Cc1cccc(-c2ccc(CNCCc3ccccc3)cc2)c1)C1CCN(Cc2ccccc2)CC1`, the XC50 is 1100 nM.

Molecule `CN1CCN(CCCN(Cc2ccc(-c3ccc(CNC4CCCC4)cc3)cc2)C(=O)CCC2CCCC2)CC1` returned an XC50 of 886 nM.

As for `O=C(/C=C/c1ccc(Cl)c(Cl)c1)NCCCCN1CCCN(C(=O)Nc2ccc(F)c(Cl)c2)CC1`, the XC50 was determined as 1510 nM.

Consider `CCN(CC)CCNC(=O)c1ccc(NC(=O)c2cn(-c3ccccc3)nc2-c2cccs2)cc1`, for which the XC50 is 258 nM.

With `CC1(CCN2CCC(c3c[nH]c4cnccc34)CC2)CCCc2c(Br)cccc2C1=O` (stereo unspecified), the XC50 amounted to 195 nM.

In the case of `CCOc1cc(C(=O)N[C@@H](Cc2ccccc2)[C@H](O)CNCc2cc(OC)cc(OC)c2)cc(N2CCCCS2(=O)=O)c1`, the XC50 was found to be 519 nM.

Regarding `COc1ccc2[nH]c(-c3ccccc3)cc(=NN=Cc3ccncc3)c2c1`, the XC50 stood at 812 nM.

On to `Cc1cc(OCCN2CCCCC2)ccc1NC(=O)c1cccc2c(=O)n(Cc3ccc(Cl)cc3)cnc12`, for which the XC50 was 1060 nM.

For `CN(C)c1ccc(CN2CCC(NC(=O)c3ccc(-c4cccc(F)c4)s3)CC2)cc1`, the XC50 worked out at 1490 nM.

`CCN(CC)CCN(CCN(CC)CC)c1ccc2c(c1)Sc1c(Cl)ccc(Cl)c1S2` showed an XC50 of 876 nM.

`FC(F)(F)c1ccc(CSc2ccc3nnc(-c4ccccn4)n3n2)cc1` registered an XC50 of 817 nM.

`COc1ccc(OC)c(-c2ccc(=O)n(CC(=O)Nc3cccc4ccccc34)n2)c1` displayed an XC50 of 901 nM.

Turning to `N#Cc1ccc(N2CCN(Cc3cccc(-c4cccc(-c5nc6cc(C(F)(F)F)ccc6[nH]5)c4)c3)CC2)nc1`, the XC50 worked out at 962 nM.

In the case of `C[C@H](Cc1ccc(OCCCCCCCOc2ccc(C[C@@H](C)NC[C@H](O)c3cccc(Cl)c3)cc2)cc1)NC[C@H](O)c1cccc(Cl)c1`, the XC50 turned out to be 189 nM.

Molecule `COCCCNc1sc(S(=O)(=O)c2ccccc2)nc1S(=O)(=O)c1ccc(C)cc1` gave an XC50 of 802 nM.

Molecule `CC1(C)NC(N)=NC(=N)N1OCCc1cccc2ccccc12` yielded an XC50 of 3.2 nM.

With `CCNc1nc(OCC(F)(F)F)nc(N(c2ccccc2)c2ccccc2)n1`, the XC50 amounted to 472 nM.

In turn, `CCC[C@@H]1CCN[C@H]([C@H](O)c2ccnc3ccc(OC)cc23)C1` gave an XC50 of 726 nM.

Molecule `O=C(Nc1cccc(CN2CCCN(Cc3ccc4c(c3)OCO4)CC2)c1)c1ccc(-c2ccccc2)cc1` registered an XC50 of 652 nM.

With `Cc1cc(Nc2ccccc2)nc(Nc2ccccc2)n1`, the XC50 was 799 nM.

`FC(F)(F)c1cccc(Nc2nc(-n3ccnc3)nc(-n3ccnc3)n2)c1`: the XC50 came out at 724 nM.

Consider `O=C(/C=C/c1ccc2ccccc2c1)NCCCCCN1CCC(c2c[nH]c3ccccc23)CC1`, for which the XC50 came out at 1220 nM.

`Clc1ccccc1C=NN=c1cc[nH]c2ccccc12` had an XC50 of 850 nM.

For the molecule `COc1cccc2cc(C(=O)N[C@@H](CC(C)C)C(=O)N[C@H](C=NN(C)C(=O)OC(C)(C)C)Cc3ccccc3)oc12`, the XC50 is 262 nM.

`CCN1CCN(c2cc(C)c3cc(NC(=O)c4cncc(Br)c4)ccc3n2)CC1`: the XC50 stood at 656 nM.

Turning to `O=C(c1ccco1)c1cn(CCOc2ccccc2)c2ccccc12`, the XC50 amounted to 748 nM.

`Cc1ccc(O)c(Nc2c3c(c(C#N)c4nc5ccccc5n24)CCC3)c1` gave an XC50 of 1250 nM.

On to `CN1CCCC(CN2CCN(Cc3ccc(-c4cccc(-c5nc6ccccc6[nH]5)c4)cc3)CC2)C1` (stereo unspecified), for which the XC50 came to 132 nM.

In turn, `O=C(/C=C/c1ccc(Cl)c(Cl)c1)N1CCC(CN2CCC(Cc3c[nH]c4ccccc34)CC2)CC1` showed an XC50 of 674 nM.

On to `O=C(NCCCCN1CCC(c2ccc3c(c2OCCOCCO)CCCC3)CC1)c1ccc(-c2ccc(C(F)(F)F)cc2)cc1`, for which the XC50 amounted to 275 nM.

`CN1CCN(Cc2cccc(-c3ccc4c(Nc5ccc(F)cc5Cl)ccnc4c3)c2)CC1` displayed an XC50 of 156 nM.

Molecule `CC[C@H]1CN2CC[C@@H]1C[C@H]2[C@H](O)c1cc(N2CCC(C)CC2)nc2ccc(OC)cc12` gave an XC50 of 172 nM.

As for `CCCCCCCN1CC[C@@H](CCCc2ccnc3ccc(OCCN4CCOCC4)cc23)[C@@H](CC)C1`, the XC50 was found to be 909 nM.

The molecule `N=c1c2c(n(Cc3ccc(Cl)cc3Cl)c3c1CCC3)CCCC2` came in with an XC50 of 350 nM.

In turn, `NCCCOc1cnc(-c2ccccc2)c2nc(-c3nonc3N)n(CCc3ccccc3)c12` had an XC50 of 1270 nM.

The molecule `O=C(/C=C/c1ccc(Cl)c(Cl)c1)N(Cc1ccccc1)C1CCC(CN2CCC(c3c[nH]c4ccccc34)CC2)CC1` (stereo unspecified) gave an XC50 of 209 nM.

Molecule `Nc1ncc(-c2cccc(CCN3CCOCC3)c2)cc1-c1nc2cc(Br)ccc2[nH]1` had an XC50 of 277 nM.

Consider `COc1ccc2nccc([C@@H](O)CN3CCC(NC(=O)c4nc(Cl)c(Cl)c(N)c4Cl)CC3)c2c1`, for which the XC50 is 1300 nM.

`COc1ccc(CNCc2cccc(-c3cccc(-c4nc5cc(F)ccc5[nH]4)c3)c2)cc1` showed an XC50 of 300 nM.

The molecule `Cc1nc(C)c(CC(=O)Nc2cccc(-c3cccc(-c4nc5cccc(C)c5[nH]4)c3)c2)s1` registered an XC50 of 755 nM.

As for `COc1cc(F)c2ncc(C#N)c(CCN3CCC(NCc4ccc5c(c4)OCCO5)CC3)c2c1`, the XC50 is 428 nM.

On to `N#Cc1ccc2[nH]cc(-c3cn4cc(SC5CCCC5)ccc4n3)c2c1`, for which the XC50 stood at 942 nM.
